Key:
Experiment in all cases: Test C greenhouse herbicide test, pre- and postemergence
Format in all cases: in vivo
[1] = system: crabgrass, large (large crabgrass, Digitaria sanguinalis)
Procedure, shortened: (§1)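 Percent-control ratings (0 none, 100 complete) came from visual comparison with controls held alongside in the greenhouse for 13–15 d. Treatments covered soil application at sowing and foliar application to young plants 2–18 cm tall.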

[2] = system: foxtail, giant (giant foxtail, Setaria faberii)
Procedure, shortened: as §1

[3] = system: nutsedge, yellow (yellow nutsedge, Cyperus esculentus)
Procedure, shortened: as §1

soybean (Glycine max) = system: soybean (Glycine max)
Procedure, shortened: as §1

[4] = system: johnsongrass (Sorghum halepense)
Procedure, shortened: as §1

[5] = system: ragweed (common ragweed, Ambrosia elatior)
Procedure, shortened: as §1

[6] = system: barnyardgrass (Echinochloa crus-galli)
Procedure, shortened: as §1

[7] = system: wheat (winter wheat, Triticum aestivum)
Procedure, shortened: as §1

[8] = system: waterhemp (common waterhemp, Amaranthus rudis)
Procedure, shortened: as §1

[9] = system: galium (catchweed bedstraw, Galium aparine)
Procedure, shortened: as §1

[10] = system: oilseed rape (Brassica napus)
Procedure, shortened: as §1

[11] = system: lambsquarters (Chenopodium album)
Procedure, shortened: as §1

[12] = Postemergence, 31 g ai/ha, 0 to 100 scale (0 no effect, 100 complete control)
[13] = Postemergence, 125 g ai/ha, scale 0 to 100, 0 is no effect, 100 is complete control
[14] = Postemergence, 250 g ai/ha, scale 0 to 100, 0 no effect, 100 complete control, 13 to 15 d
[15] = Preemergence, 31 g ai/ha, scale 0 to 100, 0 is no effect, 100 is complete control
[16] = Preemergence, 62 g ai/ha, scale 0 to 100, 0 is no effect, 100 is complete control
[17] = Preemergence, 125 g ai/ha, scale 0 to 100, 0 is no effect, 100 is complete control
[18] = Preemergence, 250 g ai/ha, scale 0 to 100, 0 no effect, 100 complete control
[19] = postemergence, 62 g ai/ha, scale 0 to 100, 0 no effect, 100 complete control

## CCc1ccc2ccccc2c1-c1c(O)c(C)nn(C)c1=O [Compound 32]
[1]; [12]
  Crabgrass, Large plant response rating: 10
[1]; [13]
  Plant response rating, Crabgrass, Large: 75
[1]; [14]
  Plant response rating, Crabgrass, Large: 70
[1]; [15]
  Plant response rating, Crabgrass, Large: 0
[1]; [16]
  Plant response rating, Crabgrass, Large: 35
[1]; [17]
  Plant response rating, Crabgrass, Large: 70
[1]; [18]
  Crabgrass, Large plant response rating: 100
[1]; [19]
  Crabgrass, Large plant response rating: 30
[2]; [12]
  Foxtail, Giant plant response rating: 15
[2]; [13]
  Plant response rating, Foxtail, Giant: 80
[2]; [14]
  Plant response rating, Foxtail, Giant: 90
[2]; [15]
  Plant response rating, Foxtail, Giant: 55
[2]; [16]
  Plant response rating, Foxtail, Giant: 80
[2]; [17]
  Plant response rating, Foxtail, Giant: 85
[2]; [18]
  Foxtail, Giant plant response rating: 85
[2]; [19]
  Foxtail, Giant plant response rating: 50
[3]; [12]
  Nutsedge, Yellow plant response rating: 55
[3]; [13]
  Plant response rating, Nutsedge, Yellow: 80
[3]; [14]
  Plant response rating, Nutsedge, Yellow: 85
[3]; [15]
  Plant response rating, Nutsedge, Yellow: 25
[3]; [16]
  Plant response rating, Nutsedge, Yellow: 45
[3]; [17]
  Plant response rating, Nutsedge, Yellow: 45
[3]; [18]
  Nutsedge, Yellow plant response rating: 60
[3]; [19]
  Nutsedge, Yellow plant response rating: 80
Soybean (Glycine max); [12]
  Soybean plant response rating: 15
Soybean (Glycine max); [13]
  Plant response rating, Soybean: 30
Soybean (Glycine max); [14]
  Plant response rating, Soybean: 35
Soybean (Glycine max); [16]
  Plant response rating, Soybean: 10
Soybean (Glycine max); [17]
  Plant response rating, Soybean: 40
Soybean (Glycine max); [18]
  Soybean plant response rating: 55
Soybean (Glycine max); [19]
  Soybean plant response rating: 25
[4]; [12]
  Johnsongrass plant response rating: 5
[4]; [13]
  Plant response rating, Johnsongrass: 15
[4]; [14]
  Plant response rating, Johnsongrass: 35
[4]; [15]
  Plant response rating, Johnsongrass: 0
[4]; [16]
  Plant response rating, Johnsongrass: 0
[4]; [17]
  Plant response rating, Johnsongrass: 10
[4]; [18]
  Johnsongrass plant response rating: 45
[4]; [19]
  Johnsongrass plant response rating: 25
[5]; [12]
  Ragweed plant response rating: 85
[5]; [13]
  Plant response rating, Ragweed: 98
[5]; [14]
  Plant response rating, Ragweed: 98
[5]; [15]
  Plant response rating, Ragweed: 85
[5]; [16]
  Plant response rating, Ragweed: 90
[5]; [17]
  Plant response rating, Ragweed: 95
[5]; [18]
  Ragweed plant response rating: 98
[5]; [19]
  Ragweed plant response rating: 90
[6]; [12]
  Barnyardgrass plant response rating: 10
[6]; [13]
  Plant response rating, Barnyardgrass: 65
[6]; [14]
  Plant response rating, Barnyardgrass: 90
[6]; [15]
  Plant response rating, Barnyardgrass: 20
[6]; [16]
  Plant response rating, Barnyardgrass: 65
[6]; [17]
  Plant response rating, Barnyardgrass: 85
[6]; [18]
  Barnyardgrass plant response rating: 100
[6]; [19]
  Barnyardgrass plant response rating: 30
[7]; [12]
  Wheat plant response rating: 5
[7]; [13]
  Plant response rating, Wheat: 25
[7]; [14]
  Plant response rating, Wheat: 40
[7]; [16]
  Plant response rating, Wheat: 45
[7]; [17]
  Plant response rating, Wheat: 50
[7]; [18]
  Wheat plant response rating: 70
[7]; [19]
  Wheat plant response rating: 15
[8]; [12]
  Waterhemp plant response rating: 70
[8]; [13]
  Plant response rating, Waterhemp: 85
[8]; [14]
  Plant response rating, Waterhemp: 98
[8]; [16]
  Plant response rating, Waterhemp: 100
[8]; [17]
  Plant response rating, Waterhemp: 100
[8]; [18]
  Waterhemp plant response rating: 100
[8]; [19]
  Waterhemp plant response rating: 80
[9]; [12]
  Galium plant response rating: 90
[9]; [13]
  Plant response rating, Galium: 100
[9]; [14]
  Plant response rating, Galium: 100
[9]; [15]
  Plant response rating, Galium: 90
[9]; [16]
  Plant response rating, Galium: 95
[9]; [17]
  Plant response rating, Galium: 100
[9]; [18]
  Galium plant response rating: 98
[9]; [19]
  Galium plant response rating: 100
[10]; [12]
  Oilseed Rape plant response rating: 10
[10]; [13]
  Plant response rating, Oilseed Rape: 60
[10]; [14]
  Plant response rating, Oilseed Rape: 90
[10]; [15]
  Plant response rating, Oilseed Rape: 25
[10]; [16]
  Plant response rating, Oilseed Rape: 90
[10]; [17]
  Plant response rating, Oilseed Rape: 90
[10]; [18]
  Oilseed Rape plant response rating: 100
[10]; [19]
  Oilseed Rape plant response rating: 60
[11]; [12]
  Lambsquarters plant response rating: 85
[11]; [13]
  Plant response rating, Lambsquarters: 98
[11]; [14]
  Plant response rating, Lambsquarters: 100
[11]; [15]
  Plant response rating, Lambsquarters: 80
[11]; [16]
  Plant response rating, Lambsquarters: 70
[11]; [17]
  Plant response rating, Lambsquarters: 85
[11]; [18]
  Lambsquarters plant response rating: 90
[11]; [19]
  Lambsquarters plant response rating: 90
